Assays:
[1] = Thermodynamic aqueous solubility; type: physicochemical; conditions: water, equilibrated at 25° C. for 24 hours, HPLC
Protocol: Aqueous solubility was determined by suspending sufficient compound in water to give a maximum final concentration of ≥20 mg·ml^−1 of the parent free-form of the compound. The suspension was equilibrated at 25° C. for 24 hours then the pH was measured. The suspension was then filtered through a glass fibre C filter into a 96 well plate unless stated otherwise. The filtrate was then diluted by a factor of 101. Quantitation was by HPLC with reference to a standard solution of approximately 0.1 mg·ml^−1 in DMSO. Different volumes of the standard, diluted and undiluted sample solutions were injected. The solubility was calculated using the peak areas determined by integration of the peak found at the same retention time as the principal peak in the standard injection.
Analysis was performed on an Agilent HP1100 series system equipped with a diode array detector and using ChemStation software vB.02.01-SR1.

[2] = Forcing drying conditions (60° C. at <20 mm Hg); type: physicochemical; conditions: 60° C. at <20 mm Hg for 8 days
[3] = Storage stability at 40° C. and 75% RH (XRPD); type: physicochemical; conditions: a week
[4] = Storage stability at 25° C. and 92% RH (XRPD); type: physicochemical; conditions: for Solid form stability on storage: 92% RH/25° C., on glass slide, after a week
Protocol: A sample of Form E was laid on a glass slide then placed in a box maintained at 92% RH/25° C.

[5] = Gravimetric vapour sorption (GVS); type: physicochemical; conditions: for Solid form stability under the GVS conditions (XRPD after GVS): 25° C., 0-90% RH
Protocol: Sorption isotherms were obtained using a SMS DVS Intrinsic moisture sorption analyser, controlled by SMS Analysis Suite software. The sample temperature was maintained at 25° C. by the instrument controls. The humidity was controlled by mixing streams of dry and wet nitrogen, with a total flow rate of 200 ml min^−1. The relative humidity was measured by a calibrated Rotronic probe (dynamic range of 1.0-100% RH), located near the sample. The weight change, (mass relaxation) of the sample as a function of % RH was constantly monitored by the microbalance (accuracy ±0.005 mg). Typically 5-20 mg of sample was placed in a tared mesh stainless steel basket under ambient conditions. The sample was loaded and unloaded at 40% RH and 25° C. (typical room conditions). A moisture sorption isotherm was performed as outlined below (2 scans giving 1 complete cycle). The standard isotherm was performed at 25° C. at 10% RH intervals over a 0.5-90% RH range. [table] The sample was recovered after completion of the isotherm and re-analyzed by XRPD.

[6] = Stability under ambient conditions; type: physicochemical; conditions: within a month
T877A AR mutant = target: T1, T877A AR mutant (Homo sapiens, UniProt P10275, T878A); conditions: cited from earlier work
T1 sequence (P10275 1-920 T878A): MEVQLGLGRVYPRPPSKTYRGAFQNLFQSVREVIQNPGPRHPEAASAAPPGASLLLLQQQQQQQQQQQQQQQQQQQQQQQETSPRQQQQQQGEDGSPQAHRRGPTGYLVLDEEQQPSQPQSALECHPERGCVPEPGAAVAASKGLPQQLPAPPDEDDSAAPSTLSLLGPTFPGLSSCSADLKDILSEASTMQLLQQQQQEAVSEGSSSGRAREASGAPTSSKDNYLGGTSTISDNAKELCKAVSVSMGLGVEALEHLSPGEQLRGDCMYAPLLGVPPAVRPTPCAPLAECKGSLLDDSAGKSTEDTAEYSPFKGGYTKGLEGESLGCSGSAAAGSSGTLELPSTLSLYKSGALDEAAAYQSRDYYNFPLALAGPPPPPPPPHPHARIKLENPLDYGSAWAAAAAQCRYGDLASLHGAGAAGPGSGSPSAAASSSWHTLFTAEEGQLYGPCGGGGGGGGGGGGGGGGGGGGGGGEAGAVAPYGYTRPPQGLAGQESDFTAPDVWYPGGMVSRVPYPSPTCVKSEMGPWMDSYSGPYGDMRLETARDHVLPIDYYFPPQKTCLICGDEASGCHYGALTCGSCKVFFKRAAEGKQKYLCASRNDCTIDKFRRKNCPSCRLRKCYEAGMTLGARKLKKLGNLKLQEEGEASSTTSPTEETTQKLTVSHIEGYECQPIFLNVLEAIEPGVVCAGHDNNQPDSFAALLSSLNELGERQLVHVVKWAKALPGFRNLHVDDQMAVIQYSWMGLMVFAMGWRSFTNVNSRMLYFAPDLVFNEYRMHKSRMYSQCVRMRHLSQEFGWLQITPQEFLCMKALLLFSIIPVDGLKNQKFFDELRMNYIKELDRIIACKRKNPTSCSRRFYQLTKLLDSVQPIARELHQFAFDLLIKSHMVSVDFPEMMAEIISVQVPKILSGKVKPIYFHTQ

CNC(=O)c1ccc(N2C(=S)N(c3cnc(C#N)c(C(F)(F)F)c3)C(=O)C23CCC3)cc1F [Form A, 4-[7-(6-cyano-5-trifluoromethylpyridin-3-yl)-8-oxo-6-thioxo-5,7-diazaspiro[3.4]oct-5-yl]-2-fluoro-N-methylbenzamide]
Aqueous Solubility (mg/mL) [1]: about 0.01 mg/mL | Behaviour under forcing conditions [2]: lost ethanol, the XRPD pattern of the material stayed the same | Solid form stability on storage [3]: stable

CNC(=O)c1ccc(N2C(=S)N(c3cnc(C#N)c(C(F)(F)F)c3)C(=O)C23CCC3)cc1F [Form B, 4-[7-(6-cyano-5-trifluoromethylpyridin-3-yl)-8-oxo-6-thioxo-5,7-diazaspiro[3.4]oct-5-yl]-2-fluoro-N-methylbenzamide]
Aqueous Solubility (mg/mL) [1]: about 0.004 mg/mL | Solid form stability on storage [3]: stable | Solid form stability on storage (XRPD before and after) ([4]; 25° C. and 92% RH for 12 days): stable | Solid form stability under the GVS conditions (XRPD after GVS) [5]: stable | Hygroscopicity ([5]; GVS at 25° C.): not hygroscopic | Uptake of water ([5]; GVS isotherm at 25° C., at 90% RH): less than 0.2%

CNC(=O)c1ccc(N2C(=S)N(c3cnc(C#N)c(C(F)(F)F)c3)C(=O)C23CCC3)cc1F [Form C, 4-[7-(6-cyano-5-trifluoromethylpyridin-3-yl)-8-oxo-6-thioxo-5,7-diazaspiro[3.4]oct-5-yl]-2-fluoro-N-methylbenzamide]
Solid form stability on storage [3]: stable

CNC(=O)c1ccc(N2C(=S)N(c3cnc(C#N)c(C(F)(F)F)c3)C(=O)C23CCC3)cc1F [Form D, 4-[7-(6-cyano-5-trifluoromethylpyridin-3-yl)-8-oxo-6-thioxo-5,7-diazaspiro[3.4]oct-5-yl]-2-fluoro-N-methylbenzamide]
Solid form stability on storage [3]: stable

CNC(=O)c1ccc(N2C(=S)N(c3cnc(C#N)c(C(F)(F)F)c3)C(=O)C23CCC3)cc1F [Form E, 4-[7-(6-cyano-5-trifluoromethylpyridin-3-yl)-8-oxo-6-thioxo-5,7-diazaspiro[3.4]oct-5-yl]-2-fluoro-N-methylbenzamide]
Solid form stability on storage [3]: transformed to Form A | Solid form stability on storage [4]: transformed to Form A and a small amount of Form B | Solid form stability under the GVS conditions (XRPD after GVS) [5]: transformed to Form A

CNC(=O)c1ccc(N2C(=S)N(c3cnc(C#N)c(C(F)(F)F)c3)C(=O)C23CCC3)cc1F [Form F, 4-[7-(6-cyano-5-trifluoromethylpyridin-3-yl)-8-oxo-6-thioxo-5,7-diazaspiro[3.4]oct-5-yl]-2-fluoro-N-methylbenzamide]
Solid form stability under ambient conditions [6]: transformed to Form A | Solid form stability on storage [3]: transformed to Form A

CNC(=O)c1ccc(N2C(=S)N(c3cnc(C#N)c(C(F)(F)F)c3)C(=O)C23CCC3)cc1F [Form G, 4-[7-(6-cyano-5-trifluoromethylpyridin-3-yl)-8-oxo-6-thioxo-5,7-diazaspiro[3.4]oct-5-yl]-2-fluoro-N-methylbenzamide]
Solid form stability on storage [3]: stable

CNC(=O)c1ccc(N2C(=S)N(c3cnc(C#N)c(C(F)(F)F)c3)C(=O)C23CCC3)cc1F [Form H, 4-[7-(6-cyano-5-trifluoromethylpyridin-3-yl)-8-oxo-6-thioxo-5,7-diazaspiro[3.4]oct-5-yl]-2-fluoro-N-methylbenzamide]
Solid form stability on storage [3]: stable

CNC(=O)c1ccc(N2C(=S)N(c3cnc(C#N)c(C(F)(F)F)c3)C(=O)C23CCC3)cc1F [Form I, 4-[7-(6-cyano-5-trifluoromethylpyridin-3-yl)-8-oxo-6-thioxo-5,7-diazaspiro[3.4]oct-5-yl]-2-fluoro-N-methylbenzamide]
Solid form stability on storage [4]: transformed to Form B

CNC(=O)c1ccc(N2C(=S)N(c3cnc(C#N)c(C(F)(F)F)c3)C(=O)C23CCC3)cc1F [Form J, 4-[7-(6-cyano-5-trifluoromethylpyridin-3-yl)-8-oxo-6-thioxo-5,7-diazaspiro[3.4]oct-5-yl]-2-fluoro-N-methylbenzamide]
Solid form stability on storage [4]: transformed to Form B

CC(C)(O)C(=O)Nc1ccc([N+](=O)[O-])c(C(F)(F)F)c1 [hydroxyflutamide]
Activity in T877A AR mutant (T877A AR mutant): act as AR agonists

Reference: patent US12018008B2, “Crystalline forms of an androgen receptor modulator” (Aragon Pharmaceuticals, Inc., priority 2012, dated 2024)
